For 2 compounds, remaining activity and IC50 results are on record in PMC8632988, “Inhibition of SYK and cSrc kinases can protect bone and cartilage in preclinical models of osteoarthritis and rheumatoid arthritis” (Scientific Reports, 2021).

“And” between values parts separate entries of the source, which are not always exact repeats. Identical values can stand only once. Like-named read-outs stand apart in the source and are kept apart here.

By IC50 is commonly meant the concentration that gives 50% inhibition.

Common to all, as to assay: Kinase selectivity profile assay
Common to all, as to assay type: biochemical

One test addresses T1, MNK2 (Homo sapiens, UniProt Q9HBH9).
T1 construct: purchased Reaction Biology Corporation
To be noted: 500 nM; relative to DMSO; read-out: Residual enzymatic activity. The method in brief:
(§1)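 Radiometric kinase assay run by a standard protocol. Unbound phosphate was removed by washing filters in phosphoric acid, and product radioactivity gave percent remaining kinase activity versus DMSO vehicle reactions. Run in duplicate.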

Another test addresses T2, DYRK2 (Homo sapiens, UniProt Q92630).
T2 construct: purchased Reaction Biology Corporation
To be noted: 500 nM; relative to DMSO; read-out: Residual enzymatic activity. The method in brief: as §1

In the next test the target is T3, CDK1/cyclin B (Homo sapiens, UniProt P06493).
T3 construct: purchased Reaction Biology Corporation
To be noted: 500 nM; relative to DMSO; read-out: Residual enzymatic activity. The gist of the method: as §1

For a further test, the target named is T4, CDK2/Cyclin A1 (Homo sapiens, UniProt P24941).
T4 construct: purchased Reaction Biology Corporation
The conditions noted are these: 500 nM; relative to DMSO; read-out: Residual enzymatic activity. The method in brief:
as §1

Another test concerns the target T5, ERK1 (Homo sapiens, UniProt P27361).
T5 construct: purchased Reaction Biology Corporation
The conditions noted are these: 500 nM; relative to DMSO; read-out: Residual enzymatic activity. The gist of the method:
as §1

A further test has as its target T6, MINK/MINK1 (Homo sapiens, UniProt Q8N4C8).
T6 construct: purchased Reaction Biology Corporation
To be noted: 500 nM; relative to DMSO; read-out: Residual enzymatic activity. The gist of the method: as §1

The next test addresses T7, SIK1 (Homo sapiens, UniProt P57059).
T7 construct: purchased Reaction Biology Corporation (Malvern, PA, USA)
To be noted: for remaining activity at 0.5 µM: 500 nM, relative to DMSO, read-out: Residual enzymatic activity. The gist of the method: as §1

A further test concerns the target T8, CDK5/p35 (Homo sapiens, UniProt Q00535).
T8 construct: purchased Reaction Biology Corporation
The conditions noted are these: 500 nM; relative to DMSO; read-out: Residual enzymatic activity. The gist of the method:
as §1

Another test has as its target T9, CDK16/cyclin Y (Homo sapiens, UniProt Q00536).
T9 construct: purchased Reaction Biology Corporation
To be noted: 500 nM; relative to DMSO; read-out: Residual enzymatic activity. The method in brief:
as §1

In another test the target is T10, PAK4 (Homo sapiens, UniProt O96013).
T10 construct: purchased Reaction Biology Corporation
To be noted: 500 nM; relative to DMSO; read-out: Residual enzymatic activity. The gist of the method: as §1

In a further test the target is T11, STK22D/TSSK1 (Homo sapiens, UniProt Q9BXA7).
T11 construct: purchased Reaction Biology Corporation (Malvern, PA, USA)
T11 sequence (Q9BXA7 1-367): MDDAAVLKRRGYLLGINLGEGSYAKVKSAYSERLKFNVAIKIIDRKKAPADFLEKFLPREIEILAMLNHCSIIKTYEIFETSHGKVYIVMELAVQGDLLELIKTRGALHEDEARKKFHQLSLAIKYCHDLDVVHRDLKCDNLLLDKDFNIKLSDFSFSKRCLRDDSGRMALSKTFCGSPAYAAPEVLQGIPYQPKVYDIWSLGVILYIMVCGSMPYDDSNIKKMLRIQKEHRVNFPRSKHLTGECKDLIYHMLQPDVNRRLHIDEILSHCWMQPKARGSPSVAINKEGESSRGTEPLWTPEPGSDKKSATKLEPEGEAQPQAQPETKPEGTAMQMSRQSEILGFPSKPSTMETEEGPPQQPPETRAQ
The conditions noted are these: for remaining activity at 0.5 µM: 500 nM, relative to DMSO, read-out: Residual enzymatic activity. The method in brief:
as §1

The next test addresses T12, DAPK2 (Homo sapiens, UniProt Q9UIK4).
T12 construct: purchased Reaction Biology Corporation
To be noted: 500 nM; relative to DMSO; read-out: Residual enzymatic activity. The gist of the method: as §1

In the next test the target is T13, RIPK5 (Homo sapiens, UniProt Q6XUX3).
T13 construct: purchased Reaction Biology Corporation
The conditions noted are these: 500 nM; relative to DMSO; read-out: Residual enzymatic activity. The method in brief: as §1

A further test concerns the target T14, TAOK3/JIK (Homo sapiens, UniProt Q9H2K8).
T14 construct: purchased Reaction Biology Corporation
The conditions noted are these: 500 nM; relative to DMSO; read-out: Residual enzymatic activity. The gist of the method: as §1

A further test concerns the target T15, FAK/PTK2 (Homo sapiens, UniProt Q05397).
T15 construct: purchased Reaction Biology Corporation
To be noted: 500 nM; relative to DMSO; read-out: Residual enzymatic activity. The gist of the method:
as §1

The next test addresses T16, CDK4/cyclin D3 (Homo sapiens, UniProt P11802).
T16 construct: purchased Reaction Biology Corporation
To be noted: 500 nM; relative to DMSO; read-out: Residual enzymatic activity. The method in brief: as §1

The target of another test is T17, SGK1 (Homo sapiens, UniProt O00141).
T17 construct: purchased Reaction Biology Corporation
To be noted: 500 nM; relative to DMSO; read-out: Residual enzymatic activity. The gist of the method: as §1

The target in the next test is T18, PKCzeta (Homo sapiens, UniProt Q05513).
T18 construct: purchased Reaction Biology Corporation
To be noted: read-out: Residual enzymatic activity. The method in brief: as §1

Another test deals with T19, NEK4 (Homo sapiens, UniProt P51957).
T19 construct: purchased Reaction Biology Corporation
To be noted: 500 nM; relative to DMSO; read-out: Residual enzymatic activity. The gist of the method: as §1

A further test deals with T20, TTBK1 (Homo sapiens, UniProt Q5TCY1).
T20 construct: purchased Reaction Biology Corporation
The conditions noted are these: 500 nM; relative to DMSO; read-out: Residual enzymatic activity. The gist of the method:
as §1

The next test deals with T21, PKCb2 (Homo sapiens, UniProt P05771).
T21 construct: purchased Reaction Biology Corporation
To be noted: 500 nM; relative to DMSO; read-out: Residual enzymatic activity. The method in brief:
as §1

Setting [1] is: 10-dose mode, threefold serial dilution from 10 μM.

T7 sequence (P57059 whole entry): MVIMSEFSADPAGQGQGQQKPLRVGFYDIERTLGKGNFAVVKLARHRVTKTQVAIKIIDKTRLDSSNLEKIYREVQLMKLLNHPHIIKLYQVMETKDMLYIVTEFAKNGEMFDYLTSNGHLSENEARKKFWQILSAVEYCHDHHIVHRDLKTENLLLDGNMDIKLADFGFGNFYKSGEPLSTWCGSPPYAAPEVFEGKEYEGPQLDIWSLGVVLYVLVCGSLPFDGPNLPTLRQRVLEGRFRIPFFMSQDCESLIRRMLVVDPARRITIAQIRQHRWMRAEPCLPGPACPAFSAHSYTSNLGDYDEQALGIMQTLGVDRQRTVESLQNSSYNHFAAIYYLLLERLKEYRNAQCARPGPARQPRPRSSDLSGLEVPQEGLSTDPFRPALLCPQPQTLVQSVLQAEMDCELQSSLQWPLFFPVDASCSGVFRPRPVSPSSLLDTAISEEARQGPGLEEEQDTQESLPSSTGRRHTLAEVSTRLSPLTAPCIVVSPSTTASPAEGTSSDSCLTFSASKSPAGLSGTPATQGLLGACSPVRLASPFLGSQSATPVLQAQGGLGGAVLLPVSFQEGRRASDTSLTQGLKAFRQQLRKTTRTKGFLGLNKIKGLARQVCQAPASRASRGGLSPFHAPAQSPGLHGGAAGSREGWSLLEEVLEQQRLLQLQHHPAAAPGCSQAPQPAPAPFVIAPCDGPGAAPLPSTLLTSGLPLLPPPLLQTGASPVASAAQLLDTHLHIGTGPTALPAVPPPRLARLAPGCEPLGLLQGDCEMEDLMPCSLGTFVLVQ
T15 sequence (Q05397 whole entry): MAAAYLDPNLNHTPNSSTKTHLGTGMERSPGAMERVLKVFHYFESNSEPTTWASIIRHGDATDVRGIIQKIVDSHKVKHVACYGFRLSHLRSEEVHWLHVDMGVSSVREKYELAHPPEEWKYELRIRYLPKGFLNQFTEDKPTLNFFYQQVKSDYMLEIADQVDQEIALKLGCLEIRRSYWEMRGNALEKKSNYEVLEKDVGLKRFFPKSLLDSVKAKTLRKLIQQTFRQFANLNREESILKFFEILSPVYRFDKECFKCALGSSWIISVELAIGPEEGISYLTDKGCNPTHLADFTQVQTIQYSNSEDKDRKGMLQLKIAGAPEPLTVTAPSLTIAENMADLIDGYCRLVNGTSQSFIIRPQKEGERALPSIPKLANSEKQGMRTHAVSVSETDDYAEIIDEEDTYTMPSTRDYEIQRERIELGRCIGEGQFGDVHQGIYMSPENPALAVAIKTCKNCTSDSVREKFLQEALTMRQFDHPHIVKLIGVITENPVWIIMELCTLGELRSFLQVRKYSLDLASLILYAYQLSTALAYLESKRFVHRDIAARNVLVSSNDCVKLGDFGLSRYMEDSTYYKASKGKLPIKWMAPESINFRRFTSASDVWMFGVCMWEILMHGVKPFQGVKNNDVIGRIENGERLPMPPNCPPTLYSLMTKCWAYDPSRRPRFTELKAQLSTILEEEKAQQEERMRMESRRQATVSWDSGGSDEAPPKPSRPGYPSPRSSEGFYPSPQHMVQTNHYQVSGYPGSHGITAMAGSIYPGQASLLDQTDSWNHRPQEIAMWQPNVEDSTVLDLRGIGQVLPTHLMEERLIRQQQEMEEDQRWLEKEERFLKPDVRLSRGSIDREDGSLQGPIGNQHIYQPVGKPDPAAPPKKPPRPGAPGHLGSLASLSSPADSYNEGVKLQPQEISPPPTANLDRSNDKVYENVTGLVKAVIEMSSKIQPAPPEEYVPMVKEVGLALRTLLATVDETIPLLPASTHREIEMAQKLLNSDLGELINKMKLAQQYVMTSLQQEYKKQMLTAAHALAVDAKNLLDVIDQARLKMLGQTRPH
T20 sequence (Q5TCY1 whole entry): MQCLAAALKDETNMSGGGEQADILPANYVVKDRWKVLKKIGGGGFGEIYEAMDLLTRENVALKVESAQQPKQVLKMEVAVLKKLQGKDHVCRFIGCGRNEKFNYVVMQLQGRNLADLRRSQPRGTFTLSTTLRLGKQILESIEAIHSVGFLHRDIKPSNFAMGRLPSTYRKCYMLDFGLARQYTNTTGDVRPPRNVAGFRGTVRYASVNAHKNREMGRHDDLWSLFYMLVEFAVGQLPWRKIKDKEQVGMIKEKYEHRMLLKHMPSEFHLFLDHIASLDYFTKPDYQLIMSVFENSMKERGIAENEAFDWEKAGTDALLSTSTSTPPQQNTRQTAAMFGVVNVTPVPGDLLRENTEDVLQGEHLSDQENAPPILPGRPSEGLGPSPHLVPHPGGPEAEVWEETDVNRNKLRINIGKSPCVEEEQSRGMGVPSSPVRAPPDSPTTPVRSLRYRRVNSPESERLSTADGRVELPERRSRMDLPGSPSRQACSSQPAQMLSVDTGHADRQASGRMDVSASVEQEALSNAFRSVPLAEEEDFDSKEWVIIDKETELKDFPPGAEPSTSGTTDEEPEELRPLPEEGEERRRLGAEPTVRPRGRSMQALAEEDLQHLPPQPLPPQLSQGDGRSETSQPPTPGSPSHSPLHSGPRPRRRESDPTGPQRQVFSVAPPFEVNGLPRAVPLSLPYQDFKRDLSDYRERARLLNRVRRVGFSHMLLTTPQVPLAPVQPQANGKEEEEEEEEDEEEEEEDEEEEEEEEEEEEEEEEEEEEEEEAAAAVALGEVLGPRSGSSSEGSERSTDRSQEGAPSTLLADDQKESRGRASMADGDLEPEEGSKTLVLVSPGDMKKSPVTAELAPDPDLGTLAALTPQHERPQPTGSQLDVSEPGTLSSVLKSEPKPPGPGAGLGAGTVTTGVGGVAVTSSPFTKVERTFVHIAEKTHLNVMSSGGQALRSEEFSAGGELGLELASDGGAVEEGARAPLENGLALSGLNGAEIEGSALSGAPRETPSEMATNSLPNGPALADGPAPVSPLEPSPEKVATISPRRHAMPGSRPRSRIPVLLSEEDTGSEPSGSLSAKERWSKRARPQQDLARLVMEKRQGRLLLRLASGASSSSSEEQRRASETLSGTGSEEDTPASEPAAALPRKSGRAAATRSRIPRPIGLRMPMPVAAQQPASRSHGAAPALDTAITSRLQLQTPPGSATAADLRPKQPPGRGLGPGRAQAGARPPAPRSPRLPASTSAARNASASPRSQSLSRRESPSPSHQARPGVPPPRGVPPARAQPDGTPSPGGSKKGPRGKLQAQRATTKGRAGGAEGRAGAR
T19 sequence (P51957 whole entry): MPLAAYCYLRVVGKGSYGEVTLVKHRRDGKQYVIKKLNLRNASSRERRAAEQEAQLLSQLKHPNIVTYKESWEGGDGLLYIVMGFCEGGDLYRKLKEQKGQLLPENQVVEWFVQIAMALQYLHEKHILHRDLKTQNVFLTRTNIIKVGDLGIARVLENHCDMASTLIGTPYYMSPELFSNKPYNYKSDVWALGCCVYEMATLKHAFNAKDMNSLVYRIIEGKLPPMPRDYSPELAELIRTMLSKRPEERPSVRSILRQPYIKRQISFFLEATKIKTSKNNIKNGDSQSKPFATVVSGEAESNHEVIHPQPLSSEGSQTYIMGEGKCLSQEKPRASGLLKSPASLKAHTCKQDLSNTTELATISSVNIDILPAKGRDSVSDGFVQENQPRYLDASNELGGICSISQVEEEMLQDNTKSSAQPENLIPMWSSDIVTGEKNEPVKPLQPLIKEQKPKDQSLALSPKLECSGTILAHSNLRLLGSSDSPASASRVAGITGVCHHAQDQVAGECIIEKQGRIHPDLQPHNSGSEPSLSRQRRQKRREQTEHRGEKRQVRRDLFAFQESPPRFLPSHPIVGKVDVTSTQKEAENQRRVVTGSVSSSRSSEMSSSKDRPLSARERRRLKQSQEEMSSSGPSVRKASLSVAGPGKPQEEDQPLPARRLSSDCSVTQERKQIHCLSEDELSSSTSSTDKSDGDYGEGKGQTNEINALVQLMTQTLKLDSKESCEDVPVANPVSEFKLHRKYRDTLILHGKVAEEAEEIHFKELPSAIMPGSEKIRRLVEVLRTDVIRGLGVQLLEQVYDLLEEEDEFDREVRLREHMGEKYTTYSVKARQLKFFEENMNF
T12 sequence (Q9UIK4 whole entry): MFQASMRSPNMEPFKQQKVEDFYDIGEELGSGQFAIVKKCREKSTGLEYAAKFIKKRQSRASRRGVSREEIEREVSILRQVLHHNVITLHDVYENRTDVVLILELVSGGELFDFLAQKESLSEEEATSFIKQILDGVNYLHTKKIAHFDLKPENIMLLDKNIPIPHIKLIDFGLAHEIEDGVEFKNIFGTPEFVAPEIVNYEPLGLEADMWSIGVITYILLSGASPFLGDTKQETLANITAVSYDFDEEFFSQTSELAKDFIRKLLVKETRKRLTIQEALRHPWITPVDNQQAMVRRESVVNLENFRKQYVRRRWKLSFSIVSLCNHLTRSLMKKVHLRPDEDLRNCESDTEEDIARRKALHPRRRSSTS
T10 sequence (O96013 whole entry): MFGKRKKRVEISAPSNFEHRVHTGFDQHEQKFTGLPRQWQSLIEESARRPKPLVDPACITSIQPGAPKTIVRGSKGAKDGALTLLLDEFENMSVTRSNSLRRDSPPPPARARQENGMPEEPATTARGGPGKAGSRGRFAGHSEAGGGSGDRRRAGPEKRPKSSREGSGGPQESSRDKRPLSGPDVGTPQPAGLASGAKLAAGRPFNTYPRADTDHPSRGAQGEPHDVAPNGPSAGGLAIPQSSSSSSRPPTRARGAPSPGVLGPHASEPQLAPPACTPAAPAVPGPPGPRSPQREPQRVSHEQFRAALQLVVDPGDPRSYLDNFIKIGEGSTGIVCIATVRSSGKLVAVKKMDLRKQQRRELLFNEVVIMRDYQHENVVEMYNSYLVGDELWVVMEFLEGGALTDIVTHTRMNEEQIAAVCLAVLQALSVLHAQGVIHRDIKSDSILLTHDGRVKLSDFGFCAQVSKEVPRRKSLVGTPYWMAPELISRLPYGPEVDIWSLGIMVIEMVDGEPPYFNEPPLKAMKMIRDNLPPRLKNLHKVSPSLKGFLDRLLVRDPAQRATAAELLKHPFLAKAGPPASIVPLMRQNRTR

As to `COc1cc(Nc2ncc(F)c(Nc3ccc4c(n3)NC(=O)C(C)(C)O4)n2)cc(OC)c1OC` [R406, reference compound], the remaining activity at 0.5 µM at MNK2 came to 37.9%; at DYRK2, 64.1%; at CDK1/cyclin B, 75.6%; at CDK2/Cyclin A1, 59.5%; on ERK1, 97.4%; on MINK/MINK1 it was 87.3%. Moreover, the remaining activity at 0.5 µM on SIK1 was determined as 7.2%; on CDK5/p35, 82.9%; on CDK16/cyclin Y it was 63.3%; on PAK4, 53.9%; at STK22D/TSSK1, 9.6%; at DAPK2 it was 103%. For the same compound, the remaining activity at 0.5 µM at RIPK5 is 100%; on TAOK3/JIK, 77.2%; on FAK/PTK2 it was 29.7%; on CDK4/cyclin D3, 99.6%; on SGK1, 109%; on PKCzeta it was 105%. Moreover, the remaining activity at 0.5 µM at NEK4 came out at 52.1%; on TTBK1 it was 98.5%; on PKCb2, 30.7%.

In the case of `COc1cc(Nc2ncnc(Nc3cc4c(cn3)NC(=O)C(C)(C)O4)n2)cc(OC)c1OC` [MT-SYK-03], the remaining activity at 0.5 µM on MNK2 is 78.6%; on DYRK2, 104%; at CDK1/cyclin B, 96%; on CDK2/Cyclin A1, 90.7%; on ERK1 it was 119%; on MINK/MINK1, 92%. For the same compound, the remaining activity at 0.5 µM came out at 10.1% at SIK1; 101% at CDK5/p35; 95.8% at CDK16/cyclin Y; 92.1% at PAK4; 49.9% at STK22D/TSSK1; 98.4% at DAPK2. Moreover, the remaining activity at 0.5 µM at RIPK5 was 104%; on TAOK3/JIK, 108%; at FAK/PTK2, 87.4%; on CDK4/cyclin D3, 100%; on SGK1, 108%; at PKCzeta (500 nM, relative to DMSO), 109%. In addition, the results for the remaining activity at 0.5 µM at NEK4, at TTBK1 and at PKCb2 were 109%, 108% and 87.7%, respectively. Also, the concentration for half-maximal inhibition (IC50) at SIK1 (setting [1]) was 36 nM and 35.9 nM; at STK22D/TSSK1 (setting [1]), 198 nM.
